Test results taken from ChEMBL document CHEMBL3046669, “Insecticide resistance of the oriental fruit fly, Bactrocera dorsalis (Hendel) (Diptera: Tephritidae), in mainland China” (2011).
Converted amounts (≈) assume the structure as drawn.

Columns and labels:
Format in all cases: functional
Bactrocera dorsalis [1] = assay: Resistance ratio of LC50 for adult Bactrocera dorsalis CH08 to LC50 for adult Bactrocera dorsalis after 24 hr
Bactrocera dorsalis [2] = assay: Insecticidal activity against adult Bactrocera dorsalis CH08 assessed as mortality after 24 hr; settings: CH08, 24 h
Bactrocera dorsalis [3] = assay: Insecticidal activity against adult Bactrocera dorsalis assessed as mortality after 24 hr
Bactrocera dorsalis [4] = assay: Resistance ratio of LC50 for adult Bactrocera dorsalis GZ08 to LC50 for adult Bactrocera dorsalis after 24 hr
Bactrocera dorsalis [5] = assay: Insecticidal activity against adult Bactrocera dorsalis HY08 assessed as mortality after 24 hr; settings: HY08, 24 h
Bactrocera dorsalis [6] = assay: Insecticidal activity against adult Bactrocera dorsalis FZ07 assessed as mortality after 24 hr; settings: FZ07, 24 h
Bactrocera dorsalis [7] = assay: Insecticidal activity against adult Bactrocera dorsalis C-R-48 assessed as mortality
Bactrocera dorsalis [8] = assay: Resistance ratio of LC50 for adult Bactrocera dorsalis NN08 to LC50 for adult Bactrocera dorsalis after 24 hr
Bactrocera dorsalis [9] = assay: Resistance ratio of LC50 for adult Bactrocera dorsalis WX08 to LC50 for adult Bactrocera dorsalis after 24 hr
Bactrocera dorsalis [10] = assay: Insecticidal activity against adult Bactrocera dorsalis YJ08 assessed as mortality after 24 hr; settings: YJ08, 24 h
Bactrocera dorsalis [11] = assay: Insecticidal activity against adult Bactrocera dorsalis QY08 assessed as mortality after 24 hr; settings: QY08, 24 h
Bactrocera dorsalis [12] = assay: Insecticidal activity against adult Bactrocera dorsalis CS08 assessed as mortality after 24 hr; settings: CS08, 24 h
Bactrocera dorsalis [13] = assay: Resistance ratio of LC50 for adult Bactrocera dorsalis YJ08 to LC50 for adult Bactrocera dorsalis after 24 hr
Bactrocera dorsalis [14] = assay: Resistance ratio of LC50 for adult Bactrocera dorsalis GZ07 to LC50 for adult Bactrocera dorsalis after 24 hr
Bactrocera dorsalis [15] = assay: Resistance ratio of LC50 for adult Bactrocera dorsalis YJ07 to LC50 for adult Bactrocera dorsalis after 24 hr
Bactrocera dorsalis [16] = assay: Resistance ratio of LC50 for adult Bactrocera dorsalis NN07 to LC50 for adult Bactrocera dorsalis after 24 hr
Bactrocera dorsalis [17] = assay: Resistance ratio of LC50 for adult Bactrocera dorsalis C-R-45 to LC50 for adult Bactrocera dorsalis
Bactrocera dorsalis [18] = assay: Insecticidal activity against adult Bactrocera dorsalis C-R-45 assessed as mortality
Bactrocera dorsalis [19] = assay: Resistance ratio of LC50 for adult Bactrocera dorsalis CS07 to LC50 for adult Bactrocera dorsalis after 24 hr
Bactrocera dorsalis [20] = assay: Insecticidal activity against adult Bactrocera dorsalis HZ07 assessed as mortality after 24 hr; settings: HZ07, 24 h
Bactrocera dorsalis [21] = assay: Resistance ratio of LC50 for adult Bactrocera dorsalis WX07 to LC50 for adult Bactrocera dorsalis after 24 hr
Bactrocera dorsalis [22] = assay: Insecticidal activity against adult Bactrocera dorsalis NN07 assessed as mortality after 24 hr; settings: NN07, 24 h
Bactrocera dorsalis [23] = assay: Resistance ratio of LC50 for adult Bactrocera dorsalis MM07 to LC50 for adult Bactrocera dorsalis after 24 hr
Bactrocera dorsalis [24] = assay: Resistance ratio of LC50 for adult Bactrocera dorsalis CH07 to LC50 for adult Bactrocera dorsalis after 24 hr
Bactrocera dorsalis [25] = assay: Insecticidal activity against adult Bactrocera dorsalis CS07 assessed as mortality after 24 hr; settings: CS07, 24 h
Bactrocera dorsalis [26] = assay: Resistance ratio of LC50 for adult Bactrocera dorsalis HZ08 to LC50 for adult Bactrocera dorsalis after 24 hr
Bactrocera dorsalis [27] = assay: Insecticidal activity against adult Bactrocera dorsalis ZJ07 assessed as mortality after 24 hr; settings: ZJ07, 24 h
Bactrocera dorsalis [28] = assay: Insecticidal activity against adult Bactrocera dorsalis HK07 assessed as mortality after 24 hr; settings: HK07, 24 h
Bactrocera dorsalis [29] = assay: Insecticidal activity against adult Bactrocera dorsalis GZ07 assessed as mortality after 24 hr; settings: GZ07, 24 h
Bactrocera dorsalis [30] = assay: Resistance ratio of LC50 for adult Bactrocera dorsalis FZ07 to LC50 for adult Bactrocera dorsalis after 24 hr
Bactrocera dorsalis [31] = assay: Resistance ratio of LC50 for adult Bactrocera dorsalis MM08 to LC50 for adult Bactrocera dorsalis after 24 hr
Bactrocera dorsalis [32] = assay: Insecticidal activity against adult Bactrocera dorsalis MM07 assessed as mortality after 24 hr; settings: MM07, 24 h
Bactrocera dorsalis [33] = assay: Resistance ratio of LC50 for adult Bactrocera dorsalis HK07 to LC50 for adult Bactrocera dorsalis after 24 hr
Bactrocera dorsalis [34] = assay: Insecticidal activity against adult Bactrocera dorsalis MM08 assessed as mortality after 24 hr; settings: MM08, 24 h
Bactrocera dorsalis [35] = assay: Resistance ratio of LC50 for adult Bactrocera dorsalis HZ07 to LC50 for adult Bactrocera dorsalis after 24 hr
Bactrocera dorsalis [36] = assay: Resistance ratio of LC50 for adult Bactrocera dorsalis CS08 to LC50 for adult Bactrocera dorsalis after 24 hr
Bactrocera dorsalis [37] = assay: Insecticidal activity against adult Bactrocera dorsalis HK08 assessed as mortality after 24 hr; settings: HK08, 24 h
Bactrocera dorsalis [38] = assay: Resistance ratio of LC50 for adult Bactrocera dorsalis QY07 to LC50 for adult Bactrocera dorsalis after 24 hr
Bactrocera dorsalis [39] = assay: Resistance ratio of LC50 for adult Bactrocera dorsalis HY08 to LC50 for adult Bactrocera dorsalis after 24 hr
Bactrocera dorsalis [40] = assay: Insecticidal activity against adult Bactrocera dorsalis QY07 assessed as mortality after 24 hr; settings: QY07, 24 h
Bactrocera dorsalis [41] = assay: Insecticidal activity against adult Bactrocera dorsalis HY07 assessed as mortality after 24 hr; settings: HY07, 24 h
Bactrocera dorsalis [42] = assay: Resistance ratio of LC50 for adult Bactrocera dorsalis FZ08 to LC50 for adult Bactrocera dorsalis after 24 hr
Bactrocera dorsalis [43] = assay: Insecticidal activity against adult Bactrocera dorsalis HZ08 assessed as mortality after 24 hr; settings: HZ08, 24 h
Bactrocera dorsalis [44] = assay: Insecticidal activity against adult Bactrocera dorsalis GZ08 assessed as mortality after 24 hr; settings: GZ08, 24 h
Bactrocera dorsalis [45] = assay: Insecticidal activity against adult Bactrocera dorsalis CH07 assessed as mortality after 24 hr; settings: CH07, 24 h
Bactrocera dorsalis [46] = assay: Resistance ratio of LC50 for adult Bactrocera dorsalis C-R-48 to LC50 for adult Bactrocera dorsalis
Bactrocera dorsalis [47] = assay: Insecticidal activity against adult Bactrocera dorsalis YJ07 assessed as mortality after 24 hr; settings: YJ07, 24 h
Bactrocera dorsalis [48] = assay: Resistance ratio of LC50 for adult Bactrocera dorsalis ZJ07 to LC50 for adult Bactrocera dorsalis after 24 hr
Bactrocera dorsalis [49] = assay: Insecticidal activity against adult Bactrocera dorsalis WX07 assessed as mortality after 24 hr; settings: WX07, 24 h
Bactrocera dorsalis [50] = assay: Insecticidal activity against adult Bactrocera dorsalis WX08 assessed as mortality after 24 hr; settings: WX08, 24 h
Bactrocera dorsalis [51] = assay: Insecticidal activity against adult Bactrocera dorsalis FZ08 assessed as mortality after 24 hr; settings: FZ08, 24 h
Bactrocera dorsalis [52] = assay: Resistance ratio of LC50 for adult Bactrocera dorsalis QY08 to LC50 for adult Bactrocera dorsalis after 24 hr
Bactrocera dorsalis [53] = assay: Resistance ratio of LC50 for adult Bactrocera dorsalis HK08 to LC50 for adult Bactrocera dorsalis after 24 hr
Bactrocera dorsalis [54] = assay: Resistance ratio of LC50 for adult Bactrocera dorsalis HY07 to LC50 for adult Bactrocera dorsalis after 24 hr
Bactrocera dorsalis [55] = assay: Insecticidal activity against adult Bactrocera dorsalis NN08 assessed as mortality after 24 hr; settings: NN08, 24 h

Q: For `CC1(C)[C@H](C=C(Cl)Cl)[C@H]1C(=O)O[C@@H](C#N)c1cccc(Oc2ccccc2)c1` [BETA-CYPERMETHRIN], which RatioLC50 (Bactrocera dorsalis [1]) is on record?
A: 24.35

Q: What about the LC50 (Bactrocera dorsalis [2]) of the same compound?
A: 60.6 µg/mL (≈ 146 µM)

Q: What about the LC90 (Bactrocera dorsalis [3]) of the same compound?
A: 3.6 µg/mL (≈ 8.65 µM)

Q: And the LC50 (Bactrocera dorsalis [3]; Bactrocera dorsalis, 24 h)?
A: 2.49 µg/mL (≈ 5.98 µM)

Q: And the RatioLC50 (Bactrocera dorsalis [4])?
A: 9.71

Q: And the LC50 (Bactrocera dorsalis [5])?
A: 42.5 µg/mL (≈ 102 µM)

Q: And the LC50 (Bactrocera dorsalis [6])?
A: 13.3 µg/mL (≈ 31.9 µM)

Q: And the LC90 (Bactrocera dorsalis [7])?
A: 3959.5 µg/mL (≈ 9510 µM)

Q: And the LC50 (Bactrocera dorsalis [7]; Bactrocera dorsalis, C-R-48)?
A: 830 µg/mL (≈ 1990 µM)

Q: What about the RatioLC50 (Bactrocera dorsalis [8]) of the same compound?
A: 5.02

Q: And the RatioLC50 (Bactrocera dorsalis [9])?
A: 44.03

Q: And the LC50 (Bactrocera dorsalis [10])?
A: 10.5 µg/mL (≈ 25.3 µM)

Q: And the LC50 (Bactrocera dorsalis [11])?
A: 12.2 µg/mL (≈ 29.4 µM)

Q: And the LC50 (Bactrocera dorsalis [12])?
A: 14.8 µg/mL (≈ 35.4 µM)

Q: What about the RatioLC50 (Bactrocera dorsalis [13]) of the same compound?
A: 4.23

Q: What about the RatioLC50 (Bactrocera dorsalis [14]) of the same compound?
A: 18.6

Q: What about the RatioLC50 (Bactrocera dorsalis [15]) of the same compound?
A: 1.1

Q: What about the RatioLC50 (Bactrocera dorsalis [16]) of the same compound?
A: 3.19

Q: What about the RatioLC50 (Bactrocera dorsalis [17]) of the same compound?
A: 329.3

Q: What about the LC90 (Bactrocera dorsalis [18]) of the same compound?
A: 7082.07 µg/mL (≈ 17000 µM)

Q: What about the LC50 (Bactrocera dorsalis [18]; Bactrocera dorsalis, C-R-45) of the same compound?
A: 820 µg/mL (≈ 1970 µM)

Q: What about the RatioLC50 (Bactrocera dorsalis [19]) of the same compound?
A: 6.06

Q: And the LC50 (Bactrocera dorsalis [20])?
A: 11.4 µg/mL (≈ 27.3 µM)

Q: And the RatioLC50 (Bactrocera dorsalis [21])?
A: 9.59

Q: And the LC50 (Bactrocera dorsalis [22])?
A: 7.95 µg/mL (≈ 19.1 µM)

Q: What about the RatioLC50 (Bactrocera dorsalis [23]) of the same compound?
A: 17

Q: And the RatioLC50 (Bactrocera dorsalis [24])?
A: 25.74

Q: What about the LC50 (Bactrocera dorsalis [25]) of the same compound?
A: 15.1 µg/mL (≈ 36.2 µM)

Q: What about the RatioLC50 (Bactrocera dorsalis [26]) of the same compound?
A: 28.39

Q: And the LC50 (Bactrocera dorsalis [27])?
A: 7.49 µg/mL (≈ 18 µM)

Q: And the LC50 (Bactrocera dorsalis [28])?
A: 15.5 µg/mL (≈ 37.2 µM)

Q: What about the LC50 (Bactrocera dorsalis [29]) of the same compound?
A: 46.3 µg/mL (≈ 111 µM)

Q: And the RatioLC50 (Bactrocera dorsalis [30])?
A: 5.34

Q: And the RatioLC50 (Bactrocera dorsalis [31])?
A: 13.72

Q: What about the LC50 (Bactrocera dorsalis [32]) of the same compound?
A: 42.3 µg/mL (≈ 102 µM)

Q: What about the RatioLC50 (Bactrocera dorsalis [33]) of the same compound?
A: 6.23

Q: And the LC50 (Bactrocera dorsalis [34])?
A: 34.2 µg/mL (≈ 82.1 µM)

Q: What about the RatioLC50 (Bactrocera dorsalis [35]) of the same compound?
A: 4.57

Q: What about the RatioLC50 (Bactrocera dorsalis [36]) of the same compound?
A: 5.93

Q: And the LC50 (Bactrocera dorsalis [37])?
A: 30.3 µg/mL (≈ 72.8 µM)

Q: What about the RatioLC50 (Bactrocera dorsalis [38]) of the same compound?
A: 6.08

Q: What about the RatioLC50 (Bactrocera dorsalis [39]) of the same compound?
A: 17.06

Q: And the LC50 (Bactrocera dorsalis [40])?
A: 15.1 µg/mL (≈ 36.4 µM)

Q: What about the LC50 (Bactrocera dorsalis [41]) of the same compound?
A: 32.7 µg/mL (≈ 78.5 µM)

Q: And the RatioLC50 (Bactrocera dorsalis [42])?
A: 8.17

Q: What about the LC50 (Bactrocera dorsalis [43]) of the same compound?
A: 70.7 µg/mL (≈ 170 µM)

Q: What about the LC50 (Bactrocera dorsalis [44]) of the same compound?
A: 24.2 µg/mL (≈ 58.1 µM)

Q: What about the LC50 (Bactrocera dorsalis [45]) of the same compound?
A: 64.1 µg/mL (≈ 154 µM)

Q: And the RatioLC50 (Bactrocera dorsalis [46])?
A: 333.42

Q: And the LC50 (Bactrocera dorsalis [47])?
A: 2.74 µg/mL (≈ 6.58 µM)

Q: And the RatioLC50 (Bactrocera dorsalis [48])?
A: 3.01

Q: And the LC50 (Bactrocera dorsalis [49])?
A: 23.9 µg/mL (≈ 57.3 µM)

Q: What about the LC50 (Bactrocera dorsalis [50]) of the same compound?
A: 110 µg/mL (≈ 263 µM)

Q: What about the LC50 (Bactrocera dorsalis [51]) of the same compound?
A: 20.4 µg/mL (≈ 48.9 µM)

Q: And the RatioLC50 (Bactrocera dorsalis [52])?
A: 4.91

Q: And the RatioLC50 (Bactrocera dorsalis [53])?
A: 12.17

Q: What about the RatioLC50 (Bactrocera dorsalis [54]) of the same compound?
A: 13.14

Q: And the LC50 (Bactrocera dorsalis [55])?
A: 12.5 µg/mL (≈ 30 µM)
